Assay results published in patent US6235711A, “Cell adhesion ihibiting compounds” (Zeneca Limited, priority 1996, dated 2001).
Positions of bridges follow the written chain, without caps; N, C: chain ends. Non-standard residues stand in square brackets, D forms with d. Residues, ends and D or L forms follow the SMILES beside them. No end group written: not given here. *: point of attachment. Acetyl(1-adamantyl) = O=C(CC12CC3CC(CC(C3)C1)C2)*; NMeF = CN[C@@H](Cc1ccccc1)C(=O)O

How the values were obtained:
[1] = tested on: αvβ3 as well as αIIbβIIIa; settings: cited from earlier work
α4β1 = biological target: T1, α4β1 (Homo sapiens, UniProt P05556+P13612); settings: Jurkat cells; read-out: IC50, blocking Jurkat cell adhesion to CS-1 coated plates; cited from earlier work
T1 construct: host or cells: Jurkat cells (endogenous integrin)
T1 sequence (P13612 34-1032): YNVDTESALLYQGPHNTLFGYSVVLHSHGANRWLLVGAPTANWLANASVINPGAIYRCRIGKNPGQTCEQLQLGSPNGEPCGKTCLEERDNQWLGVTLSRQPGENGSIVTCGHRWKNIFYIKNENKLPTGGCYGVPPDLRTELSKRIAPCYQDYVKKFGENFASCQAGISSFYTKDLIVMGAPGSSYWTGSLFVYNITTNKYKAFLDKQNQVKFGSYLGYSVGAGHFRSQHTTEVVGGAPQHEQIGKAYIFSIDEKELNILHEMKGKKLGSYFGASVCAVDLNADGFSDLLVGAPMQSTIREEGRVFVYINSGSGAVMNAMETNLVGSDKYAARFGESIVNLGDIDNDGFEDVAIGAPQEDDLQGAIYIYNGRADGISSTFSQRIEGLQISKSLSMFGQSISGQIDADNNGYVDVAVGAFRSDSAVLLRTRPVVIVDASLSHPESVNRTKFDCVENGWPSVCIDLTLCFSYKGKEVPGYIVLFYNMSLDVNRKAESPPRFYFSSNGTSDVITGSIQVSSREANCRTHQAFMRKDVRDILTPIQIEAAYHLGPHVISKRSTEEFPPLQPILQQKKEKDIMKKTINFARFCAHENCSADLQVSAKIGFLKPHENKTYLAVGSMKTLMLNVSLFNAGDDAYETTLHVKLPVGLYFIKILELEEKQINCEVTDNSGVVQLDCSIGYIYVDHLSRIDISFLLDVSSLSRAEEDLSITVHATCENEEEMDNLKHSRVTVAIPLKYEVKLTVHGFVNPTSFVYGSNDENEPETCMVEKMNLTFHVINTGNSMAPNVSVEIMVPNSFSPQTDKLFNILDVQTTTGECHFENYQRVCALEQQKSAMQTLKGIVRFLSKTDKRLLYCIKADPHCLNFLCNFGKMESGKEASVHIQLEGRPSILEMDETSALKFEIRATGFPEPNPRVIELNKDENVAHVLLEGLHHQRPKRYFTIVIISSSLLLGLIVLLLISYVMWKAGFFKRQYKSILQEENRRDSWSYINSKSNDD
T1 sequence (P05556 21-798): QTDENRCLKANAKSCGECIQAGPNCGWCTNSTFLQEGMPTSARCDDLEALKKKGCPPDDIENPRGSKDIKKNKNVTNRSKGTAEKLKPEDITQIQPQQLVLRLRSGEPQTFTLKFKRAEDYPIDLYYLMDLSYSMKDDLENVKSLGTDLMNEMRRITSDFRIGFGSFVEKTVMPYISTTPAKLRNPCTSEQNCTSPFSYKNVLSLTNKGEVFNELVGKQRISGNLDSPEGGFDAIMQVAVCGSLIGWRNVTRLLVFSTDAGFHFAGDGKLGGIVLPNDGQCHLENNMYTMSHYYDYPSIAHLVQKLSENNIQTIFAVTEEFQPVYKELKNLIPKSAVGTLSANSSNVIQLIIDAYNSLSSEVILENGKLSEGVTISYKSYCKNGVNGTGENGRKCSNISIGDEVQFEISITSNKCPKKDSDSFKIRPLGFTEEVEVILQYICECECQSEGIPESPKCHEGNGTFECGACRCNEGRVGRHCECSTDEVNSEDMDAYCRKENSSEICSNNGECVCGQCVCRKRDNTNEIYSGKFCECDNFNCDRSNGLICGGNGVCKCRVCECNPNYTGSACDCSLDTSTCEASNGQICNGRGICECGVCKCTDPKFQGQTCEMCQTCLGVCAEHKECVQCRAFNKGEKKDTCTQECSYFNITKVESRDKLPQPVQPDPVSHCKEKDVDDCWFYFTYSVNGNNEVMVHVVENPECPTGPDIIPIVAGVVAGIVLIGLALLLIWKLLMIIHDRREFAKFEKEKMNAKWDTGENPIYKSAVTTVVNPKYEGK

fibronectin [2] = biological target: T2, fibronectin (Homo sapiens, UniProt P05556+P13612); settings: cited from earlier work
T2 construct: host or cells: Jurkat cells; fibronectin coated on plates
T2 sequence (P13612 34-1032): as the sequence (P13612 34-1032) above
T2 sequence (P05556 21-798): as the sequence (P05556 21-798) above

Balb/C female mice = experiment: In vivo ovalbumin delayed type hypersensitivity model; settings: ovalbumin in the footpad
Method: Balb/C female mice (20-25 g) were immunised on the flank with an emulsion of ovalbumin (Sigma; 0.1 ml subcutaneous injection of 2 mg/ml solution mixed (1:1) with complete Freunds adjuvant; Difco). Seven days later the mice were challenged by subplantar injection of ovalbumin (30 μl of 1% heat aggregated ovalbumin in saline) into the left hind foot pad. Swelling of the foot developed over a 24 hour period following which foot pad thickness was measured and compared to the pre-challenge thickness. The percentage increase in foot pad thickness was calculated. Compounds were delivered by continuous infusion at doses within the range from 10 mg/kg/day to 0.001 mg/kg/day from subcutaneous Alzet osmotic minipumps which were implanted 24 hours prior to the ovalbumin challenge. Inhibition of the inflammatory response was calculated comparing vehicle treated animals and compound treated groups (n=5 animals per group).

fibronectin [3] = settings: cited from earlier work
[4] = biological target: T3, VCAM-1-IgG fusion protein (Homo sapiens, UniProt P05556+P13612); settings: HL-60 cells; read-out: IC50, binding of HL-60 cells to VCAM-1-IgG fusion protein; cited from earlier work
T3 construct: host or cells: HL-60 cells (endogenous integrin); VCAM-1-IgG fusion protein of unstated origin
T3 sequence (P13612 34-1032): as the sequence (P13612 34-1032) above
T3 sequence (P05556 21-798): as the sequence (P05556 21-798) above

For “1-adamantaneacetyl-Cys-Gly-Arg-Gly-Asp-Ser-Pro-Cys ({Acetyl(1-adamantyl)}-CGRGDSPC; disulfide 1-8 (inferred))”, the “function in αvβ3 as well as αIIbβIIIa-dependent assays” value [1] is listed as “inhibited function”, the IC50 (α4β1) is listed as 30 µM and the “binding of Jurkat cells to fibronectin coated plates” value (fibronectin [2]) is listed as “inhibited the binding”.
For `CC(C)C[C@@H]1NC(=O)[C@H](Cc2ccccc2)N(C)C(=O)[C@@H](CCCNC(=N)N)NC(=O)[C@@H](CCCNC(=N)N)NC(=O)[C@H](C(C)C)NC(=O)[C@H](CC(=O)O)NC1=O` [compound 20, c(MePhe-Leu-Asp-Val-D-Arg-D-Arg)] (cyclo(DV[dR][dR][NMeF]L)), the “dose required to produce a half-maximal inhibitory response in DTH” value (Balb/C female mice) was 0.01 mg/kg/day.
In the case of Arg-Cys-Asp-thioproline-Cys, the “leukocyte cell adhesion to fibronectin” value (fibronectin [3]) is given as “inhibitor” and the “binding to the 120 kDa chymotryptic fragment of fibronectin” value (fibronectin [3]; fragment contains the Arg-Gly-Asp central cell binding domain) is given as “inhibited the binding”.
In the case of CLHGPEILDVPST, the IC50 (α4β1) is given as 30 µM.
For c(Glu-TripLeu-Asp-Val), the IC50 [4] is listed as 94 µM.
In the case of “c(Glu-Trp-Leu-Asp-Val-Asp) (EWLDVD; cyclised; printed: Glu-Trp-Leu-Asp-Val-Asp)”, the IC50 [4] is given as over 1000 µM.
For “c(Glu-Trp-Leu-Asp-Val-Pro-Glu-Trp-Leu-Asp-Val) (EWLDVPEWLDV; cyclised; printed: Glu-Trp-Leu-Asp-Val-Pro-Glu-Trp-Leu-Asp-Val)”, the IC50 [4] is listed as over 1000 µM.
